Test results reported in patent publication US8252737B2, “Antimicrobial peptides and methods of use” (priority 2004, dated 2012).
Converted amounts (≈) assume the structure as drawn. Where two headings read alike, the source gives them in different places. Square brackets hold non-standard residues; d marks the D form. Peptide text beside a SMILES is read from it.

Columns and labels:
[1] = Circular dichroism spectroscopy of helical structure (benign buffer and 50% TFE); format: physicochemical
Protocol: To determine the secondary structure of peptides in different environments, circular dichroism (CD) spectra of the peptide analogs were measured under physiologically related pH and ionic strength (100 mM KCl, 50 mM aq. PO4, pH 7 referred to as benign conditions) and also in 50% TFE to mimic the hydrophobic environment of the membrane. […] On the non-polar face, the native L-Val residue was critical in maintaining α-helical structure. […] Even the substitution with L-Ala, which is known to have the highest α-helical propensity of all 20 amino acids (34), could not stabilize the α-helical structure. […] It is noteworthy that, on the non-polar face, the magnitude of the helical content of L-peptides in benign buffer was related to the hydrophobicity of the substituting amino acids, i.e., NLL>NVL>NAL>NSL, NKL, again showing the importance of hydrophobicity on the non-polar face in maintaining the α-helical structure. […] However, whether L- or D-substitutions were made on the non-polar face, high helical structure could be induced by the hydrophobic environment of 50% TFE, a mimic of the membrane's hydrophobicity and α-helix inducing ability (Table 3).
To determine the secondary structure of the D-enantiomeric peptides in different environments, CD spectra of the peptide analogs were measured under benign conditions (100 mM KCl, 50 mM KH2PO4/K2HPO4, pH 7.4, referred to as KP buffer) and also in 50% trifluoroethanol (TFE) to mimic the hydrophobic environment of the membrane. […] However, in the presence of 50% TFE, all three L-peptides were fully folded α-helical structures with similar ellipticities and helicity (Table 4).
Characterization of Helical Structure—The mean residue molar ellipticities of peptides were determined by circular dichroism (CD) spectroscopy, using a Jasco J-720 spectropolarimeter (Jasco, Easton, Md.), at 25° C. under benign conditions (50 mM KH2PO4/K2HPO4/100 mM KCl, pH 7), as well as in the presence of an α-helix inducing solvent, 2,2,2-trifluoroethanol (TFE) (50 mM KH2PO4/K2HPO4/100 mM KCl, pH 7 buffer/50% TFE). A 10-fold dilution of a ˜500 μM stock solution of the peptide analogs was loaded into a 0.02 cm fused silica cell and its ellipticity scanned from 190 to 250 nm. The values of molar ellipticities of the peptide analogs at a wavelength of 222 nm were used to estimate the relative α-helicity of the peptides.

[2] = test system: human erythrocytes; test: Hemolytic activity (MHC), Protocol A, 12 hours; conditions: for minimal hemolytic concentration (MHC): incubation for 12 hours at 37° C. (Tables 7 and 8)
Protocol: Measurement of Hemolytic Activity—Protocol A: Peptide samples were added to 1% human erythrocytes in phosphate buffered saline (0.08M NaCl; 0.043M Na2PO4; 0.011M KH2PO4) and reactions were incubated at 37° C. for 12 hours in microtiter plates. Peptide samples were diluted 2 fold in order to determine the concentration that produced no hemolysis. […] Hemoglobin release was determined spectrophotometrically at 562 nm. The hemolytic titer was the highest 2-fold dilution of the peptide that still caused release of hemoglobin from erythrocytes. The control for no release of hemoglobin was a sample of 1% erythrocytes without any peptide added. […] Peptide samples were diluted 2 fold in order to determine the concentration that produced no hemolysis. […] Hemoglobin release was determined spectrophotometrically at 570 nm. The hemolytic titer was the highest 2-fold dilution of the peptide that still caused release of hemoglobin from erythrocytes. The control for no release of hemoglobin was a sample of 1% erythrocytes without any peptide added.

[3] = test system: gram-positive bacteria
Protocol: Measurement of Antimicrobial Activity—Minimal inhibitory concentrations (MICs) were determined using a standard microtiter dilution method in LB (Luria-Bertani) no-salt medium (10 g of tryptone and 5 g of yeast extract per liter). Briefly, cells were grown overnight at 37° C. in LB and diluted in the same medium. […] Plates were incubated at 37° C. for 24 hours and MICs determined as the lowest peptide concentration that inhibited growth. Alternatively, minimal inhibitory concentrations were determined using a standard microtiter dilution method in a Mueller-Hinton (MH) medium. Briefly, cells were grown overnight at 37° C. in MH broth and diluted in the same medium. […] Plates were incubated at 37° C. for 24 hours and MICs determined as the lowest peptide concentration that inhibited growth. However, for MIC determination of Pseudomonas aeruginosa clinical isolates, brain heart infusion (BH1) medium was used instead of MH broth. In addition, the bacteria were diluted to a final inoculum of 1×10^6 colony-forming units/ml.

[4] = 5° C., 100 mM KCl, 50 mM PO4 pH 7.4
[5] = 5° C., relative to D-V681 in 50% TFE
[6] = 5° C., benign buffer pH 7.4 containing 50% TFE
[7] = 5° C., pH 7.4 benign, relative to D-V681 in 50% TFE
[8] = 25° C., relative to NAL in 50% TFE
[9] = 25° C., benign buffer (100 mM KCl, 50 mM PO4 pH 7.0)
[10] = 25° C., benign buffer diluted 1:1 (v/v) with TFE
[11] = 25° C., benign buffer, relative to NAL in 50% TFE
[12] = minimal hemolytic concentration on human red blood cells (hRBC), Table 9

Row | Compound | [θ]222 Benign [1, 4] [deg · cm^2 · dmol^−1] | % helix 50% TFE [1, 5] [%] | [θ]222 50% TFE [1, 6] [deg · cm^2 · dmol^−1] | % helix Benign [1, 7] [%] | % helix 50% TFE [1, 8] [%] | [θ]222 Benign [1, 9] | [θ]222 50% TFE [1, 10] | % helix Benign [1, 11] [%] | fold decrease in hemolytic activity compared to the L-diastereomer [2] | minimal hemolytic concentration (MHC) [2] [µg/mL] | MIC (μg/ml) GM [3] [µg/mL] | MHC [2, 12] [µg/mL] | MIC (μg/ml) Gram-positive [3] [µg/mL] | MIC (μg/ml) Gram-positive ([3]; geometric mean MIC, Table 9) [µg/mL] | fold decrease in hemolytic activity compared to V681 ([2]; 12 hours) | MIC (μg/ml) GM ([3]; geometric mean of MIC values from all 6 gram-positive strains of Table 12) [µg/mL] | MHC [2] [µg/mL]
1 | CC[C@H](C)[C@H](NC(=O)[C@H](C)NC(=O)[C@H](CCCCN)NC(=O)[C@H](CC(C)C)NC(=O)[C@H](C)NC(=O)[C@@H](NC(=O)[C@H](Cc1c[nH]cn1)NC(=O)[C@H](CC(C)C)NC(=O)[C@@H](NC(=O)[C@@H](NC(=O)[C@H](CCCCN)NC(=O)[C@@H](C)NC(=O)[C@H](C)NC(=O)[C@H](CO)NC(=O)[C@H](CCCCN)NC(=O)[C@H](Cc1ccccc1)NC(=O)[C@@H](NC(=O)[C@H](CCCCN)NC(=O)[C@H](CC(C)C)NC(=O)[C@H](Cc1ccccc1)NC(=O)[C@H](CO)NC(=O)[C@H](CCCCN)NC(=O)[C@H](Cc1c[nH]c2ccccc12)NC(=O)[C@H](CCCCN)NC(C)=O)[C@@H](C)O)[C@@H](C)O)C(C)C)[C@@H](C)O)C(=O)N[C@@H](CO)C(=O)N[C@@H](CO)C(N)=O [NAD] | −4000 | 89 | −25000 | 14 | 85 | −2,850 deg · cm^2 · dmol^−1 | −24,650 deg · cm^2 · dmol^−1 | 10 | 8 | 250 | 2.8 (≈ 0.954 µM) | – | – | – | – | – | –
2 | CC[C@H](C)[C@H](NC(=O)[C@H](C)NC(=O)[C@H](CCCCN)NC(=O)[C@H](CC(C)C)NC(=O)[C@H](C)NC(=O)[C@@H](NC(=O)[C@H](Cc1c[nH]cn1)NC(=O)[C@H](CC(C)C)NC(=O)[C@@H](NC(=O)[C@@H](NC(=O)[C@H](CCCCN)NC(=O)[C@H](C)NC(=O)[C@H](C)NC(=O)[C@H](CO)NC(=O)[C@H](CCCCN)NC(=O)[C@H](Cc1ccccc1)NC(=O)[C@@H](NC(=O)[C@H](CCCCN)NC(=O)[C@H](CC(C)C)NC(=O)[C@H](Cc1ccccc1)NC(=O)[C@H](CO)NC(=O)[C@H](CCCCN)NC(=O)[C@H](Cc1c[nH]c2ccccc12)NC(=O)[C@H](CCCCN)NC(C)=O)[C@@H](C)O)[C@@H](C)O)C(C)C)[C@@H](C)O)C(=O)N[C@@H](CO)C(=O)N[C@@H](CO)C(N)=O [NAL] | – | – | – | – | 100 | – | −28,950 deg · cm^2 · dmol^−1 | 12 | – | 31.2 | – | 31.2 | 4.5 (≈ 1.53 µM) | – | – | – | –
3 | CC[C@H](C)[C@H](NC(=O)[C@H](C)NC(=O)[C@H](CCCCN)NC(=O)[C@H](CC(C)C)NC(=O)[C@H](C)NC(=O)[C@@H](NC(=O)[C@H](Cc1c[nH]cn1)NC(=O)[C@H](CC(C)C)NC(=O)[C@@H](NC(=O)[C@@H](NC(=O)[C@H](CCCCN)NC(=O)[C@@H](CCCCN)NC(=O)[C@H](C)NC(=O)[C@H](CO)NC(=O)[C@H](CCCCN)NC(=O)[C@H](Cc1ccccc1)NC(=O)[C@@H](NC(=O)[C@H](CCCCN)NC(=O)[C@H](CC(C)C)NC(=O)[C@H](Cc1ccccc1)NC(=O)[C@H](CO)NC(=O)[C@H](CCCCN)NC(=O)[C@H](Cc1c[nH]c2ccccc12)NC(=O)[C@H](CCCCN)NC(C)=O)[C@@H](C)O)[C@@H](C)O)C(C)C)[C@@H](C)O)C(=O)N[C@@H](CO)C(=O)N[C@@H](CO)C(N)=O [NKD] | – | – | – | – | 82 | −2,000 deg · cm^2 · dmol^−1 | −23,600 deg · cm^2 · dmol^−1 | 7 | – | – | – | >250.0 | – | 18.7 (≈ 6.25 µM) | – | – | –
4 | CC[C@H](C)[C@H](NC(=O)[C@H](C)NC(=O)[C@H](CCCCN)NC(=O)[C@H](CC(C)C)NC(=O)[C@H](C)NC(=O)[C@@H](NC(=O)[C@H](Cc1cnc[nH]1)NC(=O)[C@H](CC(C)C)NC(=O)[C@@H](NC(=O)[C@@H](NC(=O)[C@H](CCCCN)NC(=O)[C@H](CCCCN)NC(=O)[C@H](C)NC(=O)[C@H](CO)NC(=O)[C@H](CCCCN)NC(=O)[C@H](Cc1ccccc1)NC(=O)[C@@H](NC(=O)[C@H](CCCCN)NC(=O)[C@H](CC(C)C)NC(=O)[C@H](Cc1ccccc1)NC(=O)[C@H](CO)NC(=O)[C@H](CCCCN)NC(=O)[C@H](Cc1c[nH]c2ccccc12)NC(=O)[C@H](CCCCN)NC(C)=O)[C@@H](C)O)[C@@H](C)O)C(C)C)[C@@H](C)O)C(=O)N[C@@H](CO)C(=O)N[C@@H](CO)C(N)=O [NKL] | −1400 | 96 | −27000 | 5 | 91 | −1,450 deg · cm^2 · dmol^−1 | −26,250 deg · cm^2 · dmol^−1 | 5 | – | – | – | – | – | – | > 32 | 7.9 (≈ 2.64 µM) | –
5 | CC[C@H](C)[C@H](NC(=O)[C@H](C)NC(=O)[C@H](CCCCN)NC(=O)[C@H](CC(C)C)NC(=O)[C@H](C)NC(=O)[C@@H](NC(=O)[C@H](Cc1c[nH]cn1)NC(=O)[C@H](CC(C)C)NC(=O)[C@@H](NC(=O)[C@@H](NC(=O)[C@H](CCCCN)NC(=O)[C@@H](CO)NC(=O)[C@H](C)NC(=O)[C@H](CO)NC(=O)[C@H](CCCCN)NC(=O)[C@H](Cc1ccccc1)NC(=O)[C@@H](NC(=O)[C@H](CCCCN)NC(=O)[C@H](CC(C)C)NC(=O)[C@H](Cc1ccccc1)NC(=O)[C@H](CO)NC(=O)[C@H](CCCCN)NC(=O)[C@H](Cc1c[nH]c2ccccc12)NC(=O)[C@H](CCCCN)NC(C)=O)[C@@H](C)O)[C@@H](C)O)C(C)C)[C@@H](C)O)C(=O)N[C@@H](CO)C(=O)N[C@@H](CO)C(N)=O [NSD] (Ac-KWKSFLKTFKSA[dS]KTVLHTALKAISS-NH2) | – | – | – | – | 77 | −1,700 deg · cm^2 · dmol^−1 | −22,200 deg · cm^2 · dmol^−1 | 6 | – | – | – | – | 16.0 (≈ 5.42 µM) | – | – | – | >250.0
6 | Ac-KWKSFLKTFKSALKTVLHTALKAISS-NH2 [NLL] | – | – | – | – | 98 | −20,600 deg · cm^2 · dmol^−1 | −28,250 deg · cm^2 · dmol^−1 | 71 | – | 7.8 | – | – | – | – | – | – | –
